Results on 18 compounds are retold here after PubChem BioAssay (NCI).

Structures are written as SMILES.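 Exposure lasted 48 hours, with cells grown in 96-well plates and compounds tested at five concentrations. GI50 is the concentration that inhibits growth by half. TGI marks complete inhibition of growth.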

The subject of one test is CAKI-1 renal. Kind of test: inhibition of tumour cell growth, NCI panel, 48 h.
As to `CCOC1Oc2ccccc2C(=O)/C1=C/Nc1ccc(C(C)=O)cc1` (centres undefined), the GI50 is 19 µM and the TGI was 45.3 µM.
The like results for `COC1/C=C/OC2(C)Oc3c(C)c(O)c4c(O)c(c(/C=N/Nc5ccc([N+](=O)[O-])cc5[N+](=O)[O-])c(O)c4c3C2=O)NC(=O)C(C)=C/C=C/C(C)C(O)C(C)C(O)C(C)C(OC(C)=O)C1C` (centres undefined) were, in that order, 2.9 µM and > 50 µM.
For `COc1ccc2c(c1)sc1nc(-c3ccccc3)c(-c3cccc4ccccc34)n12` the same measures were 0.792 µM and > 100 µM.
For the compound `C[N+](C)(C)CC(=O)N/N=C(/CC(=O)CC(C1=C(O)c2ccccc2OC1)c1ccccc1)C(=O)Nc1cccc(Cl)c1` (centres undefined), the TGI is > 100 µM.
As to `OCCN(CCO)c1ncnc2c1ncn2Cc1ccc(CCl)cc1`, the GI50 was 14.5 µM and the TGI was 30 µM.
The like results for `Cc1ccc(NC(=O)Nc2ccc(-c3cccnc3)cc2N2CCC(CO)CC2)cc1` were, in that order, 3.82 µM and > 100 µM.
The like results for `Cc1cc(-c2nc(C(=O)Nc3cc4oc(N5CCOCC5)nc4nc3N3CC[C@@H](O)C3)co2)ccn1` were, in that order, 17.1 µM and 71.6 µM.
The like results for `Nc1nc(-n2c(-c3ccccc3)nc3c(Br)cc(Br)cc3c2=O)nnc1-c1cccc(Cl)c1Cl` were, in that order, 17 µM and > 100 µM.
Turning to `NS(=O)(=O)OC[C@@H]1C[C@@H](n2ccc3c(NC4CCc5ccccc54)ncnc32)C[C@@H]1O` (some centres undefined), the GI50 is 0.52 µM and the TGI was > 100 µM.
For `FC(F)(F)c1cccc(Nc2nc(-c3ccccc3)nc3ncccc23)c1` the same measures were 3.86 µM and 18.7 µM.
Turning to `C=CCOc1ccc2c(C)cc(=O)oc2c1C`, the TGI is > 100 µM.
With `COC(=O)/C=C1\S/C(=N\NC(=O)c2cc3ccc2/C=C\c2ccc(cc2)/C=C\3)N(c2ccccc2)C1=O`, the GI50 is 3.74 µM and the TGI amounted to 30 µM.
Consider `COc1cc2cc(OC)c3cc4c(cc3c2c(OC)c1OC)OCO4`, for which the TGI was > 100 µM.
Consider `COc1cc2c(c(OC)c1OC)-c1ccc(NNC(N)=S)c(=O)cc1[C@@H](NC(C)=O)CC2`, for which the GI50 was 11.7 µM and the TGI was > 100 µM.
Turning to `COc1cc2c(c3oc4c(O)cccc4c(=O)c13)CC(C(C)(O)CO)O2` (centres undefined), the TGI was > 100 µM.
Take `COc1cc2c(cc1OCCCCN1CCN(CC(=O)Nc3ccc(Cl)cc3C(=O)c3ccccc3Cl)CC1)N=CC1CCCN1C2=O` (centres undefined): the GI50 is 0.28 µM and the TGI came out at 0.676 µM.

In the next test the test system is SK-OV-3 ovarian. Kind of test: inhibition of tumour cell growth, NCI panel, 48 h.
Regarding `CCOC1Oc2ccccc2C(=O)/C1=C/Nc1ccc(C(C)=O)cc1` (centres undefined), the GI50 is 44.4 µM and the TGI is > 100 µM.
For `COC1/C=C/OC2(C)Oc3c(C)c(O)c4c(O)c(c(/C=N/Nc5ccc([N+](=O)[O-])cc5[N+](=O)[O-])c(O)c4c3C2=O)NC(=O)C(C)=C/C=C/C(C)C(O)C(C)C(O)C(C)C(OC(C)=O)C1C` (centres undefined) the same measures were 10.6 µM and 31.1 µM.
The like results for `O=C(Nc1ccc(F)cc1)Nc1ccc(Cl)c([N+](=O)[O-])c1` were, in that order, 2.62 µM and 7.52 µM.
The like results for `COc1ccc2c(c1)sc1nc(-c3ccccc3)c(-c3cccc4ccccc34)n12` were, in that order, 0.369 µM and 2.79 µM.
For `C[N+](C)(C)CC(=O)N/N=C(/CC(=O)CC(C1=C(O)c2ccccc2OC1)c1ccccc1)C(=O)Nc1cccc(Cl)c1` (centres undefined), the TGI is > 100 µM.
On to `Cc1ccc(NC(=O)Nc2ccc(-c3cccnc3)cc2N2CCC(CO)CC2)cc1`, for which the GI50 is 3.93 µM and the TGI was > 100 µM.
In the case of `Cc1cc(-c2nc(C(=O)Nc3cc4oc(N5CCOCC5)nc4nc3N3CC[C@@H](O)C3)co2)ccn1`, the GI50 is 16.6 µM and the TGI turned out to be 66.9 µM.
The like results for `COc1cnc2c(c1)C(=O)c1c-2n(CCCN2CCOCC2)c(=O)c2cc(F)ccc12` were, in that order, 0.282 µM and 1.92 µM.
For `Nc1nc(-n2c(-c3ccccc3)nc3c(Br)cc(Br)cc3c2=O)nnc1-c1cccc(Cl)c1Cl`, the GI50 was 27.2 µM and the TGI is > 100 µM.
The like results for `NS(=O)(=O)OC[C@@H]1C[C@@H](n2ccc3c(NC4CCc5ccccc54)ncnc32)C[C@@H]1O` (some centres undefined) were, in that order, 9.36 µM and > 93.9 µM.
For the compound `FC(F)(F)c1cccc(Nc2nc(-c3ccccc3)nc3ncccc23)c1`, the GI50 was 11 µM and the TGI was determined as 24 µM.
On to `COC(=O)/C=C1\S/C(=N\NC(=O)c2cc3ccc2/C=C\c2ccc(cc2)/C=C\3)N(c2ccccc2)C1=O`, for which the GI50 was 3.55 µM and the TGI was 75.3 µM.
As to `COc1cc2cc(OC)c3cc4c(cc3c2c(OC)c1OC)OCO4`, the TGI is > 100 µM.
Take `COc1cc2c(c(OC)c1OC)-c1ccc(NNC(N)=S)c(=O)cc1[C@@H](NC(C)=O)CC2`: the GI50 was 0.817 µM and the TGI is > 100 µM.
For `COc1cc2c(cc1OCCCCN1CCN(CC(=O)Nc3ccc(Cl)cc3C(=O)c3ccccc3Cl)CC1)N=CC1CCCN1C2=O` (centres undefined) the same measures were 0.38 µM and 1.22 µM.

In the next test the test system is TK-10 renal. The test is described as follows: inhibition of tumour cell growth, NCI panel, 48 h.
Consider `O=C(Nc1ccc(F)cc1)Nc1ccc(Cl)c([N+](=O)[O-])c1`, for which the GI50 is 4.1 µM and the TGI is 20.1 µM.
Turning to `COc1ccc2c(c1)sc1nc(-c3ccccc3)c(-c3cccc4ccccc34)n12`, the GI50 was 5.17 µM and the TGI was > 100 µM.
As for `C[N+](C)(C)CC(=O)N/N=C(/CC(=O)CC(C1=C(O)c2ccccc2OC1)c1ccccc1)C(=O)Nc1cccc(Cl)c1` (centres undefined), the TGI is > 100 µM.
As for `OCCN(CCO)c1ncnc2c1ncn2Cc1ccc(CCl)cc1`, the GI50 is 17.1 µM and the TGI stood at 33.4 µM.
For `Cc1ccc(NC(=O)Nc2ccc(-c3cccnc3)cc2N2CCC(CO)CC2)cc1`, the GI50 is 2.04 µM and the TGI stood at 5.54 µM.
For `Cc1cc(-c2nc(C(=O)Nc3cc4oc(N5CCOCC5)nc4nc3N3CC[C@@H](O)C3)co2)ccn1` the same measures were 26.7 µM and > 100 µM.
For `COc1cnc2c(c1)C(=O)c1c-2n(CCCN2CCOCC2)c(=O)c2cc(F)ccc12` the same measures were 0.489 µM and 16.3 µM.
